Measurements reported in patent US4740501A (priority 1985, dated 1988).
Read-outs that look alike come from different tables or passages of the source.

Columns and labels:
L-1210 leukemia = assay: In vivo therapy of mice inoculated intraperitoneally with L-1210 leukemia; set-up: species or system DBA/2 mice
MMTV proteins = assay: Intracellular MMTV polypeptides (immune precipitation, NaDodSO4-PAGE); type: cell-based, mouse; conditions: for activity at 15 µM: Mus musculus, control 100, read-out: Relative level of MMTV-associated radioactivity (%): Total MMTV Protein
Method: Intracellular MMTV proteins were identified in monolayer cells after 24 or 48 hour exposure to 15 uM PTT.119. Cultures were labeled with 25 uCi/ml of (^3 H)-leucine for the first 24 hours and were then doubly labeled with (^35 S)-methionine when the spent media were replenished. The relative rates of MMTV polypeptide synthesis were determined using parallel cultures continuously-treated with PTT.119 and pulse labeled for 15 minutes with ^35 S-methionine. Following labeling, the cells were washed twice in cold 0.01M phosphate-buffered saline, pH 7.5, and a solution of protease inhibitors added to yield a final concentration of 1 uM pepstatin, 10 ug soybean trypsin inhibitor/ml, and 1 mM N-ethyl maleimide. Cells were then disrupted in 0.05M phosphate buffer containing 0.1M NaCl and 0.1% Triton X-100, pH 7.5 (Pi/NaCl/Triton). Cells were scraped from the substrate and lysis completed by passing the suspensions through a 27 gauge needle five times. Nuclei were removed by centrifugation at 600×g for 10 minutes at 4° C. and 100 ul aliquots of the supernatants mixed with 10 ul preimmune rabbit sera and 50 ul of 10% […] formalin-fixed and heat-killed.
Following a 15 minute incubation at 26° C., the Staphlococcus aureus (Cowan strain) immunoabsorbent was removed by centrifugation at 10,000×g for 1 minute in a Beckman microfuge. Supernatants (100 ul) were sequentially incubated at 26° C. with 33 ul of rabbit anti-MMTV antisera for 25 minutes and 150 ul of 10% S. aureus for 15 minutes. S. aureus was then pelleted and the precipitate washed five times in Pi/NaCl/Triton. Samples were finally resuspended in 20 ul of 1% NaDodSO4 /2-mercaptoethanol, heated for 1 minute at 100° C. to release MMTV proteins, and centrifuged to remove S. aureus. Supernatants were then subjected to NaDodSO4 -PAGE. Samples were disrupted in 1% NaDodSO4 and 1% B-mercaptoethanol at 100° C. for 1 minute electrophoresed on 10-20% polyacrylamide gradient slab gels using a discontinuous buffer system. Electrophoresis of immune precipitates from cell lysates was carried out in a similar manner using 7.5-15% polyacrylamide gradients. Mr of MMTV-related polypeptides were determined by coelectrophoresis of [^14 C]-protein standards (Mr 30,000 to 50,000 Da; New England Nuclear). Radioactivity was determined and the levels associated with MMTV polypeptide peaks quantitated using a generalized curve-fit computer program.

5-78 T-lymphoma = assay: Tumor cell survival (trypan blue), continuous exposure; type: cell-based, Rabbit
L-1210 leukemia cells = assay: Bioassay of tumorigenicity of in vitro treated tumor cells in syngeneic hosts; type: in vivo, BDf1 mice; conditions: for MEAN SURVIVAL TIME (MST) of recipients: L-1210, control 10
Text: Suspensions of untreated and tripeptide treated MJY-alpha mammary tumor, B-16 melanoma, and L-1210 leukemia cells were adjusted to a concentration of 1×10^7 cells/ml based on the initial tumor cell concentration before the tripeptide exposure. Tumor cells were inoculated into syngeneic hosts at a concentration of 1×10^6 cells in […]. Female BALB/c/Crgl recipients of MJY-alpha mammary tumor cells and male C57BL/6/Jx hosts receiving B16 melanoma cells were inoculated subcutaneously; BDf1 mice were given intraperitoneal injections of L-1210 cells. Subcutaneous tumors were measured along their long and short axes every 1 to 3 days; tumor size is reported as the product of the two measurements (mm^2). The examination periods for mice receiving L-1210, MJY-alpha and B-16 tumor grafts were 45, 80, and 85 days, respectively. All mice were autopsied at the time of death or sacrifice.

L1210 leukemia cells = assay: Tumorigenicity of in vitro treated leukemia cells in BDF1 recipients; type: in vivo, BDF1 mice; conditions: for MST: L1210, control 10
Method: All in vitro PTT.119 and L-PAM treatment of cells were carried out at 37° C. in the appropriate complete growth media containing 10% or 18% sera. L1210, L1210/L-PAM and P388/L-PAM cell suspensions of 1×10^6 cells/ml were subjected to a single 15, 30 or 60 min pulse exposure to 3.75, 7.5 and 15 uM PTT.119 or L-PAM. Following treatment, media were removed by pelleting the cells at 200×g for 9 min at 5° C. Cells were then gently washed twice with fresh growth media and finally resuspended in RPMI-1630 medium with 10% FBS for in vitro cultures.
Suspensions of PTT.119 or L-PAM treated cells, and control leukemia cells were adjusted to 1×10^7 cells/ml based on tumor cell concentrations prior to drug exposure. Syngeneic female BDF1 (BALB/c×DBA/2)f, mice weighing 20 to 26 g received intraperitoneal injections of 1×10^6 cells. Mice were monitored daily throughout the 45 day examination period and were autopsied at the time of death.

[1] = system: B-16 melanoma cell layers; assay: Tumor cell survival (trypan blue), continuous exposure; type: cell-based, Mouse
[2] = single dose 10, 15, and 20 mg/kg 48 hours after inoculation

In the case of `CCOC(=O)[C@H](CCSC)NC(=O)[C@H](Cc1cccc(N(CCCl)CCCl)c1)NC(=O)[C@@H](N)Cc1ccc(F)cc1.Cl` [PTT.119, 3-(p-fluorophenyl)-L-alanyl-3-[m-bis(2-chloroethyl)aminophenyl]-L-alanyl-L-methionine ethyl ester hydrochloride], the mean survival time (L-1210 leukemia; single dose 10, 15, and 20 mg/kg 48 hours after 10^6 L-1210 cells i.p., from 8 days) is reported as 30 days, the “apparent cure, share of treated animals” value (L-1210 leukemia; [2]) is reported as 30% and the “increase of the mean survival time” value (L-1210 leukemia; [2]) is reported as 275%. For the same compound, the “levels of radiolabeled MMTV polypeptides higher than in parallel controls” value (MMTV proteins; 15 min pulse labelling at end of 24 and 48 hour treatment) was 1.5 fold, the activity at 15 µM (MMTV proteins; 24 hr, 15 min pulse labelling) was 181% and the activity at 15 µM (MMTV proteins; 48 hr, 15 min pulse labelling) was 154%. For the same compound, the activity at 15 µM (MMTV proteins; 48 hr, 24 hr labeling) was 125%, the activity at 15 µM (MMTV proteins; 24 h, 24 hr, 24 hr labeling) was 128% and the “% tumor cell survival” value (5-78 T-lymphoma; 5 ug/ml, 1 hr) was 100%. For the same compound, the “% tumor cell survival” value (5-78 T-lymphoma; 5 ug/ml, 4 hr) was 88%, the “% tumor cell survival” value (5-78 T-lymphoma; 5 ug/ml, 24 hr) was 66% and the “% tumor cell survival” value (5-78 T-lymphoma; 10 ug/ml, 1 hr) was 89%. For the same compound, the “% tumor cell survival” value (5-78 T-lymphoma; 10 ug/ml, 4 hr) was 61%, the “% tumor cell survival” value (5-78 T-lymphoma; 10 ug/ml, 24 hr) was 49% and the “% tumor cell survival” value (5-78 T-lymphoma; 25 ug/ml, 1 hr) was 75%. The “% tumor cell survival” value (5-78 T-lymphoma; 25 ug/ml, 4 hr) was 32%, the “% tumor cell survival” value (5-78 T-lymphoma; 25 ug/ml, 8 hr) was 14% and the “% tumor cell survival” value (5-78 T-lymphoma; 25 ug/ml, 24 hr) was 6%. For the same compound, the “% tumor cell survival” value (5-78 T-lymphoma; 50 ug/ml, 1 hr) was 57%, the “% tumor cell survival” value (5-78 T-lymphoma; 50 ug/ml, 4 hr) was 4% and the “% tumor cell survival” value (5-78 T-lymphoma; 50 ug/ml, 24 hr) was 2%. For the same compound, the “MEAN SURVIVAL TIME (MST) of recipients” value (L-1210 leukemia cells; 1 ug/ml, 15 min) was 10 days, the “MEAN SURVIVAL TIME (MST) of recipients” value (L-1210 leukemia cells; 1 ug/ml, 30 min) was 10 days and the “MEAN SURVIVAL TIME (MST) of recipients” value (L-1210 leukemia cells; 1 ug/ml, 60 min) was 11 days. The “MEAN SURVIVAL TIME (MST) of recipients” value (L-1210 leukemia cells; 1 ug/ml, 120 min) was 13 days, the “MEAN SURVIVAL TIME (MST) of recipients” value (L-1210 leukemia cells; 5 ug/ml, 15 min) was 13 days and the “MEAN SURVIVAL TIME (MST) of recipients” value (L-1210 leukemia cells; 5 ug/ml, 30 min) was 21 days. For the same compound, the “MEAN SURVIVAL TIME (MST) of recipients” value (L-1210 leukemia cells; 5 ug/ml, 60 min) was 32 days, the “MEAN SURVIVAL TIME (MST) of recipients” value (L-1210 leukemia cells; 10 ug/ml, 15 min) was 8 days and the “ILS (increased life span)” value (L-1210 leukemia cells; L-1210 cells treated with 5 ug for 30 min) was 110%. For the same compound, the “ILS (increased life span)” value (L-1210 leukemia cells; L-1210 cells treated with 5 ug for 60 min) was 220%, the “tumor growth in recipient mice” value (L-1210 leukemia cells; L-1210 cells treated with 5 ug for 2 hr) was “No tumor growth” and the “tumor growth in recipient mice” value (L-1210 leukemia cells; L-1210 cells treated with 10 ug for 30 min or longer) was “No tumor growth”. The “MST” value (L1210 leukemia cells; 7.5 uM, 30 min) was 21 days, the “MST” value (L1210 leukemia cells; 7.5 uM, 60 min) was 32 days and the “MST” value (L1210 leukemia cells; 15 uM, 15 min) was 8 days. The “mice free of tumor at end of 45-day examination period” value (L1210 leukemia cells; L1210 cells, 7.5 and 15 uM, every group) was 80-100%, the “% tumor cell survival” value ([1]; 5 ug/ml, 1 hr) was 100% and the “% tumor cell survival” value ([1]; 5 ug/ml, 4 hr) was 100%. The “% tumor cell survival” value ([1]; 5 ug/ml, 8 hr) was 100%, the “% tumor cell survival” value ([1]; 5 ug/ml, 24 hr) was 74% and the “% tumor cell survival” value ([1]; 10 ug/ml, 1 hr) was 100%. The “% tumor cell survival” value ([1]; 10 ug/ml, 4 hr) was 100%, the “% tumor cell survival” value ([1]; 10 ug/ml, 8 hr) was 63% and the “% tumor cell survival” value ([1]; 10 ug/ml, 24 hr) was 64%. For the same compound, the “% tumor cell survival” value ([1]; 25 ug/ml, 1 hr) was 100%, the “% tumor cell survival” value ([1]; 25 ug/ml, 4 hr) was 100% and the “% tumor cell survival” value ([1]; 25 ug/ml, 8 hr) was 92%. The “% tumor cell survival” value ([1]; 25 ug/ml, 24 hr) was 60%, the “% tumor cell survival” value ([1]; 50 ug/ml, 1 hr) was 100% and the “% tumor cell survival” value ([1]; 50 ug/ml, 4 hr) was 100%. For the same compound, the “% tumor cell survival” value ([1]; 50 ug/ml, 8 hr) was 58% and the “% tumor cell survival” value ([1]; 50 ug/ml, 24 hr) was 33%.
